PubChem BioAssay AID1259342 (Broad Institute, 2017)
The source made the active and inactive calls.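 The calls were made as follows: active = fitted half-maximal inhibitory concentration AC50 at most ten times the top concentration tested; inconclusive = flat fit with 30 to 70% inhibition, or unusable fit; inactive = AC50 above ten times the top concentration.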

target: E3 ubiquitin-protein ligase TRIM62 (Homo sapiens) (UniProt Q9BVG3); experiment: TRIM62 E3 ligase activity on CARD9 – biochemical, ubiquitin ELISA, AlphaLISA TUBE, CARD9-TRIM62 disruptor project, dose response (AID 1259342); details: TRIM62-mediated CARD9 ubiquitylation, AlphaLISA TUBE detection;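 as to AC50: potency is for inhibitors that reduce CARD9 ubiquitylation signal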
Sequence (Q9BVG3 whole entry, looked up): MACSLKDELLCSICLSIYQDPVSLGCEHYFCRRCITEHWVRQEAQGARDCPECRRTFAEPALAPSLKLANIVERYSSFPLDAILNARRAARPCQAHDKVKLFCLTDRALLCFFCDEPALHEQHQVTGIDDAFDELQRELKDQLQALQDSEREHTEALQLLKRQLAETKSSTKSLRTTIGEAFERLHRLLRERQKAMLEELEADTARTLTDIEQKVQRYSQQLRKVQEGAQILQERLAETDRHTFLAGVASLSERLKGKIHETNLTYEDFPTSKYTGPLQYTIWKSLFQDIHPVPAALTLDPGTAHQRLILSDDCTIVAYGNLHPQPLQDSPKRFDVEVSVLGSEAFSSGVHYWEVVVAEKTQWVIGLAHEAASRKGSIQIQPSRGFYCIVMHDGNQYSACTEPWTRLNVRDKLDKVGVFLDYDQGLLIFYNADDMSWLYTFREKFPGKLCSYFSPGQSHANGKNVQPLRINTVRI

SMILES | AC50
O=C(Cn1c(=O)cc(C(=O)N2CCc3ccccc3C2)c2ccccc21)NCc1ccc2c(c1)OCO2 | 11.8 µM
COc1ccc2nc(-c3ccco3)c(-c3ccco3)nc2c1 | 24.9 µM
O=S(=O)(c1ccc2nc(-c3ccco3)c(-c3ccco3)nc2c1)N1CCOCC1 | 31.1 µM
Nc1cc2c(cc1O)CCCC2 | 49.4 µM
C=CC(=O)N1CCCC2(CCN(CCN3CCCC3)C2=O)C1 (stereo unspecified) | 50.8 µM
Cc1cccc2nc(CSCc3ccco3)cn12 | 78.2 µM
N#Cc1c(NC(=O)CSc2nc3ccccc3o2)sc2c1CCC2 | 74.1 µM
Cc1ccccc1C(=O)Nc1cnc(N2CCC(C(N)=O)(N3CCCCC3)CC2)c(C(=O)O)c1 | 9.03 µM
O=[N+]([O-])c1ccc2nn(Cc3ccccc3)cc2c1 | > 160 µM (inactive)
O=C(NC1CC1)c1cc(-c2ccco2)nc2ccccc12 | 21.2 µM
O=C(O)c1ccccc1/C=N/NC(=O)c1cc(-c2ccco2)nc2ccccc12 | 3 µM
COc1ccc(F)c(CN2C[C@H]3CC[C@@H]2CN(Cc2cscn2)C3)c1 | > 160 µM (inactive)
O=C1CS/C(=N\N=C\c2ccco2)N1c1ccccc1 | 22.2 µM
O=C(Nc1nc(-c2ccco2)c(-c2ccco2)s1)c1ccc(F)cc1F | > 160 µM (inactive)
O=C(O)C1Oc2cc3ccccc3cc2O1 | 3.02 µM
N#CCSc1nc2c(c(=O)n1Cc1ccco1)C1(CCCC1)Cc1ccccc1-2 | 57 µM
CC(C)C(CC(=O)NCc1ccco1)c1ccco1 (stereo unspecified) | 5.47 µM
NC(=O)C1(N2CCCCC2)CCN(c2ncc(NC(=O)c3cccs3)cc2C(=O)O)CC1 | 35.8 µM
COc1ccc(S(=O)(=O)N2CCN(C(=O)c3cc4c(s3)CCC4)CC2)cc1 | 10.2 µM
O=S(=O)(Nc1nccs1)c1ccc(-n2cccc2)cc1 | 17.4 µM
Cc1ccc(-c2cc(C(=O)Nc3ccccn3)c3ccccc3n2)o1 | 60.9 µM
O=C(O)c1ccc2nc(-c3ccco3)c(-c3ccco3)nc2c1 | 11.8 µM
CC(=O)c1sc2nc(-c3ccco3)ccc2c1N | 24.5 µM
Cc1ccc(N2NC(c3ccc(Br)cc3)=CCC2=O)cc1 | > 160 µM (inactive)
Nc1c2c(nc3ccccc13)CCN(Cc1ccccc1)C2 | > 160 µM (inactive)
O=C(Nc1nccs1)c1cc(-c2ccco2)nc2ccccc12 | 15.7 µM
COc1ccc(NC(=O)CN(C)C(=O)c2cc(-c3ccco3)nc3ccccc23)cc1 | 16.6 µM
O=C(Nc1nccs1)c1cc(-c2ccccn2)nc2c(Cl)cccc12 | 75.4 µM
O=C(Nc1nncs1)c1cc(-c2ccco2)nc2ccccc12 | 28.8 µM
CCCC(=O)NCc1ccc2c(c1)cc(C)n2C | > 160 µM (inactive)

same assay, conditions: TRIM62-mediated CARD9 ubiquitylation, AlphaLISA TUBE detection; at 38 µM (top of the series)

SMILES | activity change, negative = inhibition
Cc1ccc(Nc2nc(C(=O)Nc3ccc(Br)cc3)nc3ccccc23)cc1 | inactive
NC(=O)C1(N2CCCCC2)CCN(c2ncc(NC(=O)c3ccc(F)cc3)cc2C(=O)O)CC1 | inactive
O=C1NC(c2ccc(Br)cc2)Nc2sc3c(c21)CCC3 (stereo unspecified) | inactive
O=C(NCCc1ccco1)c1ccc(OCc2cn3ccccc3n2)cc1 | inactive
O=C(COC(=O)c1ccccc1Oc1ccccc1)NCc1ccco1 | inactive
Cc1ccc(C)n1Nc1nc(O)cs1 | inactive
Cc1ccc(-c2nnc(-c3nc(Nc4nc5ccccc5s4)c4ccccc4n3)o2)cc1 | inactive
O=C(Nc1nc(-c2ccccn2)cs1)c1cccc(-n2cnnn2)c1 | inactive

same assay, conditions: TRIM62-mediated CARD9 ubiquitylation, AlphaLISA TUBE detection; at 80 µM (top of the series)

SMILES | activity change, negative = inhibition
CCCN1CCCn2nc(CNC(=O)[C@@H](N)Cc3ccc(O)cc3)cc2C1 | inactive
O=C(Nc1cccc2ccccc12)NC1CC1 | inactive
Cc1occc1C(=O)NCc1cccc(CNC(=O)c2ccoc2C)c1 | inactive
C=CCNc1ncnc2c1CCN(C(=O)c1ccc(CSC)o1)CC2 | inactive
Cc1ccc2cc(CN(Cc3ccco3)S(C)(=O)=O)c(=O)[nH]c2c1 | inactive
O=C(Nc1ncccc1O)c1ccc(OCC2CCCO2)cc1 (stereo unspecified) | inactive
Cc1ncnc(N2CCC(c3nccn3Cc3cccnc3)CC2)c1C | inactive
CCc1nccn1CCC(=O)N1C[C@H](CO)C[C@H](CN2CCCC2)C1 | inactive
Cc1cnc(C)c(N2CCN(C(=O)[C@H]3CC[C@@H](N)C3)CC2)n1 | inactive
CCOC(=O)/C=C/S(=O)(=O)c1ccc(NC(C)=O)cc1 | inactive
O=C(NCc1cccnc1)c1ccccc1-c1nc(-c2ccccc2)no1 | inactive
COc1ccc(CNC(=O)c2nc(Nc3ccc(C)cc3)c3ccccc3n2)cc1 | inactive
Cc1ccc2c(c1)C(N1CCCC1=O)CC(c1ccco1)N2 (stereo unspecified) | inactive
NC(=O)C1(N2CCCCC2)CCN(c2ccc(NC(=O)c3ccccc3F)cc2C(=O)O)CC1 | inactive
c1cn(CCc2noc(C3CCCC3)n2)c(-c2cc3n(n2)CCCNC3)n1 | inactive
COCCCNC(=O)C1CCN(c2ccc(N3CCOCC3)nn2)CC1 | inactive
C(=N\n1cnnc1SCc1ccccc1)/c1ccco1 | inactive
Cc1scc(C(=O)NCc2ccco2)c1-c1ccccc1 | inactive
CN(c1ccccc1C(=O)NCc1ccco1)S(C)(=O)=O | inactive

SMILES | activity change, negative = inhibition
O=C1CC2(CCN(C(=O)Nc3ccccc3)CC2)CN1Cc1ccc(Cl)cc1 | inactive
N#Cc1c(-c2ccco2)cc(-c2ccccn2)nc1N | inactive
CCn1ccnc1C1CCN(C(=O)CCn2c(C)nc3ccccc32)CC1 | inactive
O=C(COC(=O)c1cc(-c2ccco2)nc2ccccc12)NCc1ccc2c(c1)OCO2 | inactive
CCCc1cc(C(=O)N2CC[C@H]3CNC[C@H]32)n(C)n1 | inactive
CCSCCNC(=O)c1cncc(Br)c1 | inactive
N#Cc1sc2nc(-c3ccccc3)cc(-c3ccco3)c2c1N | inactive
O=C(CCn1cncn1)N1CCC(n2cc(-c3ccccn3)nn2)CC1 | inactive
Cc1cc(C(=O)NCc2ccco2)on1 | inactive
O=C(Cn1cncc1-c1ccc([N+](=O)[O-])cc1)Nc1ccccc1F | inactive
CCc1oc2ccccc2c1C(=O)CCN1CCCCC1 | inactive
N#Cc1c2c(c(NCc3ccco3)n3c1nc1ccccc13)CCC2 | inactive
O=[N+]([O-])c1cccc(-c2nnc3ccc4ccccc4n23)c1 | inactive
O=C(CCCN1C(=O)NC2(CCCC2)C1=O)Nc1ccc(F)cc1 | inactive
CCCc1oc(C(=O)O)cc1CN | inactive
CCN1CCN(C(=O)c2cc(-c3ccco3)nc3ccccc23)CC1 | inactive
Cc1[nH]c2ccc(Cl)cc2c(=O)c1CN1CCCC1 | inactive
COCC(=O)n1nc(-c2ccco2)nc1NCc1cccs1 | inactive
CCCOc1ccc(CCC(=O)O)cc1 | inactive
